Values quoted from earlier work in PMC4022290 (Nuclear medicine and biology, 2013).

System: tumors

D-Phe-Gln-Trp-Ala-Val-Gly-His-Sta-Leu-NH2 [RM2]
uptake and retention in tumors vs agonist GRPr-targeting ligands: improved uptake and retention in tumors as compared to agonist GRPr-targeting ligands
